# According to patent publication US11179341B2, “Self-righting articles” (priority 2017, dated 2021):
# System: Micrococcus lysodeikticus cells
# Test: Lysozyme enzyme activity assay
# Format: biochemical
# Settings: micropost tips 80% lysozyme and 20% PEO 200 k, versus uncompressed powder
# Description: To measure the activity of lysozyme, the assay provided by Sigma Aldrich was used which measures the amount of lysed Micrococcus lysodeikticus cells. Briefly, a 200 unit/mL Lysozyme solution in 50 mM Potassium Phosphate Buffer was added to a 0.015% [w/v] Micrococcus lysodeikticus cell suspension in the same buffer. The decrease was recorded in A450 over 5 minutes. Nine micropost tips were fabricated from 80% lysozyme and 20% PEO 200 k and dissolved sets of three micropost tips together. Triplicate assays were performed on each dissolved solution for a total of nine tests and the results were compared to the results of a solution made with lysozyme that was not compressed into a micropost tip.
substance,measurement,value
lysozyme,lysozyme activity after the manufacturing process,maintain their activity
